# Patent publication US6835551B2, “Basophil degranulation test” (Orpegen Pharma GmbH, priority 1999, dated 2004)
# System: basophilic granulocytes
# Conditions: fMLP 10^-7 M, 30 minutes at 37° C., typical values
# Protocol: Peripheral blood (heparinised) of the patient is incubated with various concentrations of the suspected allergen at 37° C. […] The detection is carried out by a three colour immunofluorescence and flow cytometric analysis. The chemotactic peptide fMLP serves as a positive control and a buffer solution (PBS) is used as the negative control.
# The sample to be examined is divided into aliquots of 100 μl in each case. In the case of high leukocyte numbers (WBC of 10-20,000 C/μl) it is possible to use a smaller sample volume e.g. 50 μl. Multiple test mixtures are not necessary.
# ALK-depot SQ (Scherax) mixture of 6 grasses+rye is used at concentrations of 10,000, 1,000, 100 and 10 U/ml. ALK-prick SQ (Scherax) bee venom and ALK-prick SQ (Scherax) wasp venom are used at concentrations of 10, 1, 0.1 and 0.01 μg/ml. Latex allergens, PPL (allergopen) and MDM (allergopen) are used in dilutions of 1:10, 1:100 and 1:1,000. Penicillin Grünenthal is used at concentrations of 100, 10, 1 and 0.1 μg/ml. PBS serves as a negative control and fMLP at a concentration of 10^−7 M (i.e. 1:2,000 PBS) is used as the positive control. A sample from a healthy normal test person is also assayed as a further control.
# 100 μl of each of the allergen dilutions is added to an aliquot of the sample, mixed and incubated for 30 minutes at 37° C. in a water bath. Then the mixtures are placed on ice.
# The following antibody solutions are then added.
# a) 20 μl anti gp55-FITC (prediluted)
# b) 20 μl anti IgE-PE (prediluted)
# c) 10 μl anti CD45-cychrome or 20 μl CD45-PerCP
# After antibody addition it is well mixed (vortex) and incubated for 20 minutes on ice while protected from light.
# 2 ml FACS lysing solution (erythrocyte lysis and leukocyte fixation) is then added, it is mixed (vortex) and incubated for 10 minutes at room temperature while protected from light. Subsequently it is centrifuged for 5 min at 1300 rpm or 300 g and decanted.
# The cells are washed by adding 3 ml wash solution (PBS), centrifuging (5 min at 1300 rpm or 300 g) and decanting.
# The sample is measured by flow cytometry for example on an FACS scan instrument. The stability of the measured sample is presumably ≧2 hours on flaked ice in the dark.
# In the SSC/IgE dot plot, a region is set around the cells with low and high side scattered light and strong IgE expression. […] The markers are set such that the evaluation region covers the region of the gp55 positive basophils (the PBS test mixture serves as a negative control). The mean value FL1 is observed in all (also gp55-negative) cell populations. If possible, at least 1000 cells of the subclass of interest (in this case basophils) are recorded. […] It is therefore possible to view the percentage which is adequate for evaluating the test result.
substance,measurement,setting,value
fMLP,% basos,heparinised whole blood,2.35%
same,mean gp55,mean FL1 of all basophils,369
same,mean CD45,mean fluorescence (CD45 expression density) of basophils,349
same,mean IgE,mean fluorescence (IgE density) of basophils,981
same,% gp55,percentage of gp55-positive basophilic granulocytes,30.6%
